Experimental data taken from patent publication US9051317B2, “Azaindoles as respiratory syncytial virus antiviral agents” (JANSSEN SCIENCES IRELAND UC, priority 2010, dated 2015).
pEC50: −log10 of the molar value. Like-named read-outs stand apart in the source and are kept apart here.

Legend:
rgRSV224 virus = assay: microbe, parasite or virus in culture; assay type: cell-based, respiratory syncytial virus (RSV); settings: for pEC50: read-out: WT activity EC50; for SI CC50/EC50: selectivity index, CC50 (HeLa cytotoxicity) / EC50 (rgRSV224)
Description: (§1) Black 96-well clear-bottom microtiter plates (Corning, Amsterdam, The Netherlands) were filled in duplicate using a customized robot system with serial 4-fold dilutions of compound in a final volume of 50 μl culture medium [RPMI medium without phenol red, 10% FBS, 0.04% gentamycin (50 mg/mL) and 0.5% DMSO]. Then, 100 μl of a HeLa cell suspension (5×10^4 cells/mL) in culture medium was added to each well followed by the addition of 50 μl rgRSV224 (MOI=0.02) virus in culture medium using a multidrop dispenser (Thermo Scientific, Erembodegem, Belgium). rgRSV224 virus is an engineered virus that includes an additional GFP gene (Hallak et al, 2000) and was in-licensed from the NIH (Bethesda, Md., USA). Medium, virus- and mock-infected controls were included in each test. Cells were incubated at 37° C. in a 5% CO2 atmosphere. Three days post-virus exposure, viral replication was quantified by measuring GFP expression in the cells by a MSM laser microscope (Tibotec, Beerse, Belgium). The EC50 was defined as the 50% inhibitory concentration for GFP expression. In parallel, compounds were incubated for three days in a set of white 96-well microtitier plates (Corning) and the cytotoxicity of compounds in HeLa cells was determined by measuring the ATP content of the cells using the ATPlite kit (PerkinElmer, Zaventem, Belgium) according to the manufacturer's instructions. The CC50 was defined as the 50% concentration for cytotoxicity.

[1] = Cytotoxicity in HeLa cells, ATP content (ATPlite kit); assay type: cell-based; settings: human, Table 1, three days incubation, read-out: Toxicity CC50
Description: as §1

[2] = human respiratory syncytial virus, HeLa, 72 h
[3] = Table 2, rgRSV224 in HeLa cells, MOI 0.02, three days post-virus exposure, GFP expression

| Compound | pEC50 (rgRSV224 virus; [2]) | CC50 at 3 days [1] | SI CC50/EC50 (rgRSV224 virus; Table 2) | pEC50 (rgRSV224 virus; [3]) | SI CC50/EC50 (rgRSV224 virus; Table 3) |
| --- | --- | --- | --- | --- | --- |
| O=c1n(Cc2cc3cnccc3n2CCCCO)c2cnccc2n1C1CC1 [Compound P1, 1-Cyclopropyl-3-{[1-(4-hydroxybutyl)-1H-pyrrolo[3,2-c]pyridin-2-yl]methyl}-1,3-dihydro-2H-imidazo[4,5-c]pyridin-2-one] | 8.98 | > 98.4 µM | – | – | – |
| O=c1n(Cc2cc3nc(Cl)ccc3n2CCCCO)c2cnccc2n1C1CC1 [Compound P2, 3-{[5-Chloro-1-(4-hydroxybutyl)-1H-pyrrolo[3,2-b]pyridin-2-yl]methyl}-1-cyclopropyl-1,3-dihydro-2H-imidazo[4,5-c]pyridin-2-one] | 7.81 | > 9.84 µM | – | – | – |
| CC(C)CCn1c(Cn2c(=O)n(C3CC3)c3ccncc32)cc2ncccc21 [Compound P3, 1-Cyclopropyl-3-{[1-(3-methylbutyl)-1H-pyrrolo[3,2-b]pyridin-2-yl]methyl}-1,3-dihydro-2H-imidazo[4,5-c]pyridin-2-one] | 7.20 | 68 µM | – | – | – |
| O=c1n(Cc2cc3ccncc3n2CCCCO)c2cnccc2n1C1CC1 [Compound P4, 1-Cyclopropyl-3-{[1-(4-hydroxybutyl)-1H-pyrrolo[2,3-c]pyridin-2-yl]methyl}-1,3-dihydro-2H-imidazo[4,5-c]pyridin-2-one] | 6.89 | > 9.84 µM | – | – | – |
| O=c1n(Cc2cc3ncccc3n2CCCCO)c2cnccc2n1C1CC1 [Compound P5, 1-Cyclopropyl-3-{[1-(4-hydroxybutyl)-1H-pyrrolo[3,2-b]pyridin-2-yl]methyl}-1,3-dihydro-2H-imidazo[4,5-c]pyridin-2-one] | 6.80 | > 98.4 µM | – | – | – |
| COc1ccc2c(cc(Cn3c(=O)n(C4CC4)c4ccncc43)n2CCCCO)n1 [Compound P6, 1-Cyclopropyl-3-{[1-(4-hydroxybutyl)-5-methoxy-1H-pyrrolo[3,2-b]pyridin-2-yl]methyl}-1,3-dihydro-2H-imidazo[4,5-c]pyridin-2-one] | 6.66 | > 9.84 µM | – | – | – |
| O=c1n(Cc2cc3nc(O)ccc3n2CCCCO)c2cnccc2n1C1CC1 [Compound P8, 1-Cyclopropyl-3-{[5-hydroxy-1-(4-hydroxybutyl)-1H-pyrrolo[3,2-b]pyridin-2-yl]methyl}-1,3-dihydro-2H-imidazo[4,5-c]pyridin-2-one] | 5.07 | > 9.84 µM | – | – | – |
| CC(C)(C)C(=O)OCCCCn1c(Cn2c(=O)n(C3CC3)c3ccncc32)cc2nc(O)ccc21 [Compound P9, 4-{2-[(1-Cyclopropyl-2-oxo-1,2-dihydro-3H-imidazo[4,5-c]pyridin-3-yl)methyl]-5-hydroxy-1H-pyrrolo[3,2-b]pyridin-1-yl}butyl 2,2-dimethylpropanoate] | < 5.01 | > 9.84 µM | – | – | – |
| O=c1n(Cc2cc3cc(Cl)ncc3n2CCCCF)c2cnccc2n1C1CC1 [Compound P11, 3-((5-chloro-1-(4-fluorobutyl)-1H-pyrrolo[2,3-c]pyridin-2-yl)methyl)-1-cyclopropyl-1H-imidazo[4,5-c]pyridin-2(3H)-one] | 8.27 | – | >9387 | – | – |
| O=c1n(Cc2cc3cc(Cl)ncc3n2CCCC(F)(F)F)c2cnccc2n1C1CC1 [Compound P12] | – | – | >10526 | 8.62 | – |
| O=c1n(Cc2cc3cc(Cl)ncc3n2CCCC(F)(F)F)c2cnccc2n1CC(F)(F)F [Compound P13] | – | – | >106591 | 9.03 | – |
| O=c1n(Cc2cc3cc(Cl)ncc3n2CCCC(F)(F)F)c2cc(F)ccc2n1CC(F)(F)F [Compound P14] | – | – | >5823 | 7.77 | – |
| O=c1n(Cc2cc3cc(Cl)ncc3n2CCCCF)c2cnccc2n1CC(F)(F)F [Compound P15] | – | – | 51626 | 8.80 | – |
| O=c1n(Cc2cc3cc(Cl)ncc3n2CCCC(F)(F)F)c2cc(F)ccc2n1C1CC1 [Compound P16] | – | – | >2730 | 7.40 | – |
| CS(=O)(=O)CCCn1c(Cn2c(=O)n(C3CC3)c3ccncc32)cc2cnccc21 [Compound P18] | – | – | >102089 | 9.01 | – |
| O=c1n(Cc2cc3cnccc3n2CCCCF)c2cnccc2n1C1CC1 [Compound P19] | – | – | >186574 | 9.27 | – |
| CC(C)CCn1c(Cn2c(=O)n(C3CC3)c3ccncc32)cc2cnccc21 [Compound P20] | – | – | 294002 | 9.55 | – |
| O=c1n(Cc2cc3cnccc3n2CCCC(F)(F)F)c2cnccc2n1C1CC1 [Compound P21] | – | – | >405210 | 9.61 | – |
| O=c1n(Cc2c(Cl)c3cnccc3n2CCCC(F)(F)F)c2cnccc2n1C1CC1 [Compound P22] | – | – | >20007 | 8.30 | – |
| O=c1n(Cc2c(F)c3cnccc3n2CCCC(F)(F)F)c2cnccc2n1C1CC1 [Compound P23] | – | – | >3416 | 7.53 | – |
| O=c1n(Cc2cc3cnccc3n2CCCC(F)(F)F)c2c(F)nccc2n1C1CC1 [Compound P24] | 9.77 | – | – | – | >589061 |
| Cc1c(Cn2c(=O)n(C3CC3)c3ccncc32)n(CCCC(F)(F)F)c2ccncc12 [Compound P25] | – | – | >73885 | 8.87 | – |

| Compound | pEC50 (rgRSV224 virus; [2]) | CC50 at 3 days [1] | SI CC50/EC50 (rgRSV224 virus; Table 2) | pEC50 (rgRSV224 virus; [3]) | SI CC50/EC50 (rgRSV224 virus; Table 3) |
| --- | --- | --- | --- | --- | --- |
| O=c1n(Cc2c(I)c3cnccc3n2CCCC(F)(F)F)c2cnccc2n1C1CC1 [Compound P26] | – | – | 21638 | 8.63 | – |
| CS(=O)(=O)CCCn1c(Cn2c(=O)n(CC(F)(F)F)c3ccc(F)cc32)c(Br)c2cnccc21 [Compound P29] | – | – | 307 | 7.20 | – |
| CS(=O)(=O)CCCn1c(Cn2c(=O)n(CC(F)(F)F)c3ccc(F)cc32)cc2cnccc21 [Compound P30] | – | – | >162986 | 9.21 | – |
| CC(C)CCn1c(Cn2c(=O)n(C3CC3)c3ccncc32)cc2nc(Cl)ccc21 [Compound P32] | – | – | >1286 | 8.11 | – |
| CS(=O)(=O)CCCn1c(Cn2c(=O)n(C3CC3)c3ccncc32)cc2nc(Cl)ccc21 [Compound P33] | – | – | >17372 | 8.24 | – |
| CC(C)CCn1c(Cn2c(=O)n(C3COC3)c3ccncc32)cc2nc(Cl)ccc21 [Compound P34] | – | – | >2856 | 7.46 | – |
| CS(=O)(=O)CCCn1c(Cn2c(=O)n(C3COC3)c3ccncc32)cc2nc(Cl)ccc21 [Compound P36] | – | – | >14674 | 8.17 | – |
| CS(=O)(=O)CCCn1c(Cn2c(=O)n(C3CC3)c3ccc(F)cc32)cc2nc(Cl)ccc21 [Compound P37] | – | – | >4479 | 7.65 | – |
| CC(C)CCn1c(Cn2c(=O)n(C3CC3)c3ccc(F)cc32)cc2nc(Cl)ccc21 [Compound P38] | – | – | 1510 | 7.48 | – |
| CC(C)CCn1c(Cn2c(=O)n(C3CC3)c3ccccc32)cc2nc(Cl)ccc21 [Compound P39] | – | – | >388 | 6.89 | – |
| O=c1n(Cc2cc3nc(Cl)ccc3n2CCCC(F)(F)F)c2cnccc2n1C1CC1 [Compound P40] | – | – | >37045 | 8.57 | – |
| O=c1n(Cc2cc3nc(Cl)ccc3n2CCCCF)c2cnccc2n1C1CC1 [Compound P42, 3-((5-chloro-1-(4-fluorobutyl)-1H-pyrrolo[3,2-b]pyridin-2-yl)methyl)-1-cyclopropyl-1H-imidazo[4,5-c]pyridin-2(3H)-one] | 8.55 | – | 17031 | – | – |
| O=c1n(Cc2cc3nc(Cl)ccc3n2CCCC(F)(F)F)c2ccccc2n1C1CC1 [Compound P43] | – | – | 1291 | 7.16 | – |
| O=c1n(Cc2cc3nc(Cl)ccc3n2CCCCF)c2cnc(Cl)cc2n1C1CC1 [Compound P44] | 7.75 | – | – | – | 620 |
| O=c1n(Cc2cc3ncccc3n2CCCCF)c2cnccc2n1C1CC1 [Compound P45] | – | – | >2332 | 7.37 | – |
| O=c1n(Cc2cc3nc(C(F)(F)F)ccc3n2CCCCF)c2cnccc2n1C1CC1 [Compound P46] | – | – | >755 | 6.88 | – |
| O=c1n(Cc2cc3nc(Cl)ccc3n2CCCCF)c2cc(F)ccc2n1CC(F)(F)F [Compound P47] | – | – | >720 | 6.86 | – |
| O=c1n(Cc2cc3nc(Cl)ccc3n2CCCCF)c2cnccc2n1CC(F)(F)F [Compound P48] | – | – | 10490 | 8.13 | – |
| O=c1n(Cc2cc3nc(Cl)ccc3n2CCCC(F)(F)F)c2cnccc2n1CC(F)(F)F [Compound P49] | – | – | >34306 | 8.68 | – |
| O=c1n(Cc2cc3nc(Cl)ccc3n2CCCCO)c2cnccc2n1CC(F)(F)F [Compound P50] | – | – | >4946 | 8.00 | – |
| CS(=O)(=O)CCCn1c(Cn2c(=O)n(CC(F)(F)F)c3ccncc32)cc2nc(Cl)ccc21 [Compound P52] | – | – | >119028 | 9.08 | – |
| N#CCCCn1c(Cn2c(=O)n(C3CC3)c3ccncc32)cc2nc(Cl)ccc21 [Compound P53] | – | – | >6232 | 7.80 | – |
